Where only a bound is given, the exact number is not on record here.

For the test, the target named is human cannabinoid CB2 receptor (Homo sapiens, UniProt P34972). The test can be described thus: Cannabinoid CB2 receptor agonist activity (yeast reporter assay, FDGlu fluorescence). Format: cell-based. Conditions: for EC50: EC50 value at the cloned human cannabinoid CB2 receptor; for Emax: read-out: efficacy value (Emax relative to HU210) at the cloned human cannabinoid CB2 receptor. The procedure, abridged: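 Agonist-driven growth was read as fluorescein fluorescence (ex 485, em 535 nm) from FDGlu cleavage after 24 h at 30 °C, using yeast strain MMY23 carrying human CB2 and chimeric Gpa1/Gαi3. Medium had 10 mM 3-aminotriazole, pH 7.0; four-parameter fits gave EC50, with Emax and EMR versus HU210.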
human cannabinoid CB2 receptor, sequence (P34972 whole entry): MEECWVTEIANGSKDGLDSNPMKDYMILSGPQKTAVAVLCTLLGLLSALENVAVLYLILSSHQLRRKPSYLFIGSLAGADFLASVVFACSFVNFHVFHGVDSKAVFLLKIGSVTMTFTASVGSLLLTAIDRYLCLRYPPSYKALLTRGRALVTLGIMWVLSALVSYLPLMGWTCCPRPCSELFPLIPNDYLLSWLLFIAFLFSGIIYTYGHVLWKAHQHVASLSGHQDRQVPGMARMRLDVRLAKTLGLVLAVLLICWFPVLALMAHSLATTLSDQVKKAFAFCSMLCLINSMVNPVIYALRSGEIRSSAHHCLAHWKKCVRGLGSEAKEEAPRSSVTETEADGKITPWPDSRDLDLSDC
(In general: A reporter such as luciferase makes a cellular process visible.)

For `O=C(NCC1CCOCC1)c1cnc(Nc2cc(C(F)(F)F)cc(C(F)(F)F)c2)nc1C(F)(F)F` [Example 178, 2-(3,5-Bis-trifluoromethylphenylamino)-4-trifluoromethyl-pyrimidine-5-carboxylic acid (tetrahydropyran-4-ylmethyl)-amide], the EC50 was 20 to 300 nM and the maximum response (Emax) is > 50%.

`O=C(NCC1CCOCC1)c1cnc(Nc2cc(Br)cc(C(F)(F)F)c2)nc1C(F)(F)F` [Example 179, 2-(3-Bromo-5-(trifluoromethyl)phenylamino)-4-trifluoromethyl-pyrimidine-5-carboxylic acid (tetrahydropyran-4-ylmethyl)-amide]: the EC50 lay within 20 to 300 nM and the Emax is > 50%.

Regarding `O=C(NCC1CCOCC1)c1cnc(Nc2cc(F)cc(C(F)(F)F)c2)nc1C(F)(F)F` [Example 180, 2-(3-Fluoro-5-(trifluoromethyl)phenylamino)-4-trifluoromethyl-pyrimidine-5-carboxylic acid (tetrahydropyran-4-ylmethyl)-amide], the EC50 lay within 20 to 300 nM and the Emax was > 50%.

Regarding `O=C(NCC1CCOCC1)c1cnc(Nc2cccc(C(F)(F)F)c2F)nc1C(F)(F)F` [Example 181, 2-(2-Fluoro-3-(trifluoromethyl)phenylamino)-4-trifluoromethyl-pyrimidine-5-carboxylic acid (tetrahydropyran-4-ylmethyl)-amide], the EC50 is 20 to 300 nM and the maximum response (Emax) was > 50%.

For the molecule `CSc1c(Nc2ncc(C(=O)NCC3CCOCC3)c(C(F)(F)F)n2)cccc1C(F)(F)F` [Example 182, 2-(2-Methylthio-3-(trifluoromethyl)phenylamino)-4-trifluoromethyl-pyrimidine-5-carboxylic acid (tetrahydropyran-4-ylmethyl)-amide], the concentration giving a half-maximal response (EC50) was 20 to 300 nM and the maximal response (Emax) is > 50%.

For the molecule `Cc1ccc(Cl)cc1Nc1ncc(C(=O)NCC2CCCC2)c(C(F)(F)F)n1` [Example 183, 2-(5-Chloro-2-methylphenylamino)-4-trifluoromethyl-pyrimidine-5-carboxylic acid (cyclopentylmethyl)-amide], the concentration for a half-maximal effect (EC50) was 20 to 300 nM and the maximal effect (Emax) was > 50%.

As for `Cc1ccc(Nc2ncc(C(=O)NCC3CCOCC3)c(C(F)(F)F)n2)cc1Cl` [Example 184, 2-(3-Chloro-4-methylphenylamino)-4-trifluoromethyl-pyrimidine-5-carboxylic acid (tetrahydropyran-4-ylmethyl)-amide], the EC50 lay within 20 to 300 nM and the maximal response (Emax) was > 50%.

As for `Cc1c(Cl)cccc1Nc1ncc(C(=O)NCC2CCOCC2)c(C(F)(F)F)n1` [Example 185, 2-(3-Chloro-2-methylphenylamino)-4-trifluoromethyl-pyrimidine-5-carboxylic acid (tetrahydropyran-4-ylmethyl)-amide], the EC50 lay within 20 to 300 nM and the maximal effect (Emax) was > 50%.

As to `COc1cc(Nc2ncc(C(=O)NCC3CCOCC3)c(C(F)(F)F)n2)ccc1Cl` [Example 186, 2-(4-Chloro-3-methoxyphenylamino)-4-trifluoromethyl-pyrimidine-5-carboxylic acid (tetrahydropyran-4-ylmethyl)-amide], the half-maximal effective concentration (EC50) was 20 to 300 nM and the Emax is > 50%.

As to `Cc1cc(Nc2ncc(C(=O)NCC3CCOCC3)c(C(F)(F)F)n2)ccc1Cl` [Example 187, 2-(4-Chloro-3-methylphenylamino)-4-trifluoromethyl-pyrimidine-5-carboxylic acid (tetrahydropyran-4-ylmethyl)-amide], the EC50 is 20 to 300 nM and the Emax was > 50%.

Regarding `CN(CC1CCC1)C(=O)c1cnc(Nc2cccc(Cl)c2)nc1C(F)(F)F` [Example 188, 2-(3-Chlorophenylamino)-4-trifluoromethyl-pyrimidine-5-carboxylic acid cyclobutylmethyl-methyl-amide], the EC50 lay within 20 to 300 nM and the Emax is > 50%.

Regarding `CN(CC1CCCCC1)C(=O)c1cnc(Nc2cccc(Cl)c2)nc1C(F)(F)F` [Example 189, 2-(3-Chlorophenylamino)-4-trifluoromethyl-pyrimidine-5-carboxylic acid cyclohexylmethyl-methyl-amide], the EC50 lay in the range of 20 to 300 nM and the Emax was > 50%.

Turning to `CN(CC1CCCC1)C(=O)c1cnc(Nc2cccc(Cl)c2)nc1C(F)(F)F` [Example 190, 2-(3-Chlorophenylamino)-4-trifluoromethyl-pyrimidine-5-carboxylic acid cyclopentylmethyl-methyl-amide], the EC50 lay within 20 to 300 nM and the Emax was > 50%.

As for `O=C(NCC1CCC1)c1cnc(Nc2cc(Cl)ccc2F)nc1C(F)(F)F` [Example 191, 2-(5-Chloro-2-fluorophenylamino)-4-trifluoromethyl-pyrimidine-5-carboxylic acid cyclobutylmethyl-amide], the EC50 is 20 to 300 nM and the maximum response (Emax) is > 50%.

`O=C(NCC1CCC1)c1cnc(Nc2cc(F)cc(F)c2)nc1C(F)(F)F` [Example 192, 2-(3,5-Difluorophenylamino)-4-trifluoromethyl-pyrimidine-5-carboxylic acid cyclobutylmethyl-amide]: the EC50 fell in the range of 20 to 300 nM and the maximal response (Emax) is > 50%.

As to `O=C(NCC1CCC1)c1cnc(Nc2ccc(OC(F)(F)F)c(Cl)c2)nc1C(F)(F)F` [Example 193, 2-(3-Chloro-4-trifluoromethoxyphenylamino)-4-trifluoromethyl-pyrimidine-5-carboxylic acid cyclobutylmethyl-amide], the EC50 is 20 to 300 nM and the maximal response (Emax) was > 50%.

For the molecule `O=C(NCC1CCC1)c1cnc(Nc2cccc(Cl)c2F)nc1C(F)(F)F` [Example 195, 2-(3-Chloro-2-fluorophenylamino)-4-trifluoromethyl-pyrimidine-5-carboxylic acid cyclobutylmethyl-amide], the EC50 fell in the range of 20 to 300 nM and the Emax is > 50%.

On to `O=C(NCC1CCC1)c1cnc(Nc2ccc(C(F)(F)F)c(F)c2)nc1C(F)(F)F` [Example 196, 2-(3-Fluoro-4-trifluoromethylphenylamino)-4-trifluoromethyl-pyrimidine-5-carboxylic acid cyclobutylmethyl-amide], for which the EC50 lay within 20 to 300 nM and the maximal response (Emax) is > 50%.

For the molecule `N#Cc1ccc(Nc2ncc(C(=O)NCC3CCC3)c(C(F)(F)F)n2)cc1Cl` [Example 197], the Emax is > 50%.

As to `O=C(NCC1CCC1)c1cnc(Nc2cccc(F)c2)nc1C(F)(F)F` [Example 198, 2-(3-Fluorophenylamino)-4-trifluoromethyl-pyrimidine-5-carboxylic acid cyclobutylmethyl-amide], the EC50 lay in the range of 20 to 300 nM and the Emax is > 50%.

Consider `O=C(NCC1CCC1)c1cnc(Nc2cccc(Br)c2)nc1C(F)(F)F` [Example 199, 2-(3-Bromophenylamino)-4-trifluoromethyl-pyrimidine-5-carboxylic acid cyclobutylmethyl-amide], for which the EC50 was 20 to 300 nM and the Emax was > 50%.

Regarding `O=C(NCC1CCC1)c1cnc(Nc2cccc(Cl)c2Cl)nc1C(F)(F)F` [Example 200, 2-(2,3-Dichlorophenylamino)-4-trifluoromethyl-pyrimidine-5-carboxylic acid cyclobutylmethyl-amide], the half-maximal effective concentration (EC50) was in the range of 20 to 300 nM and the Emax is > 50%.

For `O=C(NCC1CCC1)c1cnc(Nc2ccc(Cl)cc2Cl)nc1C(F)(F)F` [Example 201, 2-(2,4-Dichlorophenylamino)-4-trifluoromethyl-pyrimidine-5-carboxylic acid cyclobutylmethyl-amide], the concentration for a half-maximal effect (EC50) is 20 to 300 nM and the Emax was > 50%.

With `O=C(NCC1CCC1)c1cnc(Nc2cc(Cl)ccc2Cl)nc1C(F)(F)F` [Example 202, 2-(2,5-Dichlorophenylamino)-4-trifluoromethyl-pyrimidine-5-carboxylic acid cyclobutylmethyl-amide], the EC50 lay in the range of 20 to 300 nM and the Emax is > 50%.

On to `O=C(NCC1CCC1)c1cnc(Nc2c(Cl)cccc2Cl)nc1C(F)(F)F` [Example 203, 2-(2,6-Dichlorophenylamino)-4-trifluoromethyl-pyrimidine-5-carboxylic acid cyclobutylmethyl-amide], for which the concentration giving a half-maximal response (EC50) was 20 to 300 nM and the Emax was > 50%.

As for `O=C(NCC1CCC1)c1cnc(Nc2ccc(Cl)c(Cl)c2)nc1C(F)(F)F` [Example 204, 2-(3,4-Dichlorophenylamino)-4-trifluoromethyl-pyrimidine-5-carboxylic acid cyclobutylmethyl-amide], the EC50 is 20 to 300 nM and the Emax was > 50%.

For `COc1cccc(Nc2ncc(C(=O)NCC3CCC3)c(C(F)(F)F)n2)c1` [Example 205, 2-(3-Methoxyphenylamino)-4-trifluoromethyl-pyrimidine-5-carboxylic acid cyclobutylmethyl-amide], the EC50 was in the range of 20 to 300 nM and the Emax was > 50%.

Consider `O=C(NCC1CCC1)c1cnc(Nc2cc(Cl)cc(Cl)c2)nc1C(F)(F)F` [Example 206, 2-(3,5-Dichlorophenylamino)-4-trifluoromethyl-pyrimidine-5-carboxylic acid cyclobutylmethyl-amide], for which the EC50 was in the range of 20 to 300 nM and the maximal effect (Emax) was > 50%.

As to `O=C(NC1CCCC1)c1cnc(Nc2cccc(Br)c2)nc1C(F)(F)F` [Example 207, 2-(3-Bromophenylamino)-4-trifluoromethyl-pyrimidine-5-carboxylic acid cyclopentylamide], the EC50 fell in the range of 20 to 300 nM and the Emax is > 50%.

For `O=C(NC1CCCC1)c1cnc(Nc2ccc(Cl)cc2Cl)nc1C(F)(F)F` [Example 208, 2-(2,4-Dichlorophenylamino)-4-trifluoromethyl-pyrimidine-5-carboxylic acid cyclopentylamide], the EC50 fell in the range of 20 to 300 nM and the Emax is > 50%.

Broadly, the EC50 is the concentration giving half of the maximal effect. Lower therefore signals higher potency in that assay. As a reminder, the Emax is the size of the effect at its maximum, as opposed to the concentration needed.

These data come from patent US20080132505A1 (Glaxo Group Limited, priority 2004, published 2008).
